Among the data in US20080058297A1, “Heterocyclic Compounds For Preventing And Treating Disorders Associated With Excessive Bone Loss” (Synta Pharmaceuticals Corp., priority 2003, published 2008) are IC50 and CC50 values, retold here.

The CC50 is the concentration giving 50% cytotoxicity. A high value points to better tolerance by the cells.

For series [1], the system named is Human peripheral blood mononuclear cells (PBMC). Kind of series: Inhibition of osteoclast formation (RANKL/M-CSF induced, TRAP staining). The format is cell-based. How it is done: (§1) Human peripheral blood mononuclear cells (PBMC) were isolated from healthy donor blood. The cells were seeded in multi-well plates at 7.5×10^5 cells/ml in RPMI 1640 medium including 10% FBS. Osteoclast formation was induced with 20 ng/ml of recombinant human receptor activator of NF-kB-ligand (RANKL) and 10 ng/ml of human M-CSF in the presence of various doses of test compounds. After 48 hours of culture, RANKL and M-CSF was replenished and further cultured for 2 days. Then, the cultured cells were stained for tartrate-resistant acid phosphatase (TRAP). Osteoclasts were identified as TRAP-positive cells with more than 3 nuclei. Total cell viability was assessed by CCK-8 assay (Dojindo, Gaithersburg, Md.) with 24 hour incubation.
as §1, with “Isolated” for “isolated”

The nature of series [2]: Total cell viability by CCK-8 assay. The conditions noted are these: human. The format is cell-based. Here is the method: as §1
as §1, with “Isolated” for “isolated”
Background: Tetrazolium dyes change colour on reduction, which living cells bring about.

Where [3] appears, read: 96 h, read-out: IC50 (compound concentration required for 50% inhibition of osteoclast formation), Table 1, 20 ng/ml RANKL + 10 ng/ml M-CSF, TRAP-positive cells with more than 3 nuclei.
Where [4] appears, read: 96 h, read-out: IC50 (compound concentration required for 50% inhibition of osteoclast formation), Table 2, 20 ng/ml RANKL + 10 ng/ml M-CSF, TRAP-positive cells with more than 3 nuclei.
The mark [5] stands for this setting: 96 h, read-out: IC50 (compound concentration required for 50% inhibition of osteoclast formation), Table 3, 20 ng/ml RANKL + 10 ng/ml M-CSF, TRAP-positive cells with more than 3 nuclei.

Like-named read-outs stand apart in the source and are kept apart here.

As to `C[C@]12CC[C@@H]3c4ccc(O)cc4CC[C@H]3[C@@H]1CC[C@@H]2O` [17β-estradiol, reference compound], the IC50 in series [1] (read-out: IC50 (compound concentration required for 50% inhibition of osteoclast formation), Table 1, 20 ng/ml RANKL + 10 ng/ml M-CSF, TRAP-positive cells with more than 3 nuclei) is 78 nM; in series [1] (read-out: IC50 (compound concentration required for 50% inhibition of osteoclast formation), Table 2, 20 ng/ml RANKL + 10 ng/ml M-CSF, TRAP-positive cells with more than 3 nuclei), 78 nM; in series [1] (read-out: IC50 (compound concentration required for 50% inhibition of osteoclast formation), Table 3, 20 ng/ml RANKL + 10 ng/ml M-CSF, TRAP-positive cells with more than 3 nuclei) it was 78 nM.

As to `Cc1cccc(/C=N/Nc2cc(N3CCOCC3)nc(OCCc3ccccn3)n2)c1` [Compound 12, N-(3-methyl-benzylidene)-N′-[6-morpholin-4-yl-2-(2-pyridin-2-yl-ethoxy)-pyrimidin-4-yl]-hydrazine], in series [1] (setting [3]), the IC50 turned out to be 15 nM. In series [2] (Table 1, 24 hour incubation), this compound yielded a CC50 at 24 h of 3250 nM.

Take `Cc1cccc(/C=N/Nc2cc(N3CCOCC3)nc(OCCc3cccc[n+]3[O-])n2)c1` [Compound 28, N-(3-methyl-benzylidene)-N′-{6-morpholin-4-yl-2-[2-(1-oxy-pyridin-2-yl)-ethoxy]-pyrimidin-4-yl}-hydrazine]: the IC50 in series [1] (setting [3]) came out at 70 nM. In addition, in series [2] (Table 1, 24 hour incubation), the CC50 at 24 h is above 1000 nM.

Regarding `Cc1cccc(C=NNc2cc(N3CCOCC3)nc(OCC(O)c3ccccn3)n2)c1` (stereo not shown) [Compound 42, 2-{4-[N′-(3-Methyl-benzylidene)-hydrazino]-6-morpholin-4-yl-pyrimidin-2-yloxy}-1-pyridin-2-yl-ethanol], the IC50 in series [1] (setting [3]) turned out to be 8 nM. The compound also displayed a CC50 at 24 h in series [2] (Table 1, 24 hour incubation) above 1000 nM.

Take `Cc1cccc(/C=N/Nc2cc(N3CCOCC3)nc(OCCc3ccc(O)cn3)n2)c1` [Compound 43, 6-(2-{4-[N′-(3-Methyl-benzylidene)-hydrazino]-6-morpholin-4-yl-pyrimidin-2-yloxy}-ethyl)-pyridin-3-ol]: the IC50 in series [1] (setting [3]) was determined as 12 nM. In addition, the CC50 at 24 h in series [2] (Table 1, 24 hour incubation) is above 1000 nM.

`OCc1cccc(/C=N/Nc2cc(N3CCOCC3)nc(OCCc3ccc(O)cn3)n2)c1` [Compound 44, 6-(2-{4-[N′-(3-Hydroxymethyl-benzylidene)-hydrazino]-6-morpholin-4-yl-pyrimidin-2-yloxy}-ethyl)-pyridin-3-ol]: the IC50 in series [1] (setting [3]) came to 17 nM. This compound also came in with a CC50 at 24 h in series [2] (Table 1, 24 hour incubation) above 1000 nM.

As to `Cc1[nH]c2ccc(Nc3nc(OCCc4ccccn4)nc(N4CCOCC4)n3)cc2c1C` [Compound 102], the IC50 in series [1] (setting [4]) amounted to 3 nM. In addition, the CC50 at 24 h in series [2] (Table 2, 24 hour incubation) is above 1000 nM.

For `COc1ccc(CCOc2nc(Nc3ccc4c(c3)oc3ccccc34)nc(N3CCOCC3)n2)cc1OC` [Compound 113, Dibenzofuran-3-yl-{4-[2-(3,4-dimethoxy-phenyl)-ethoxy]-6-morpholin-4-yl-[1,3,5]triazin-2-yl}-amine], the IC50 in series [1] (setting [4]) was 12 nM. For the same compound, the CC50 at 24 h in series [2] (Table 2, 24 hour incubation) is above 1000 nM.

Take `c1cncc(OCCOc2nc(Nc3ccc4c(c3)oc3ccccc34)nc(N3CCOCC3)n2)c1` [Compound 114, Dibenzofuran-3-yl-{4-morpholin-4-yl-6-[2-(pyridin-3-yloxy)-ethoxy]-[1,3,5]triazin-2-yl}-amine]: the IC50 in series [1] (setting [4]) turned out to be 24 nM. This compound came in with a CC50 at 24 h in series [2] (Table 2, 24 hour incubation) above 1000 nM.

With `Cc1[nH]c2cc(Nc3nc(OCCOc4cccnc4)nc(N4CCOCC4)n3)ccc2c1C` [Compound 115, (2,3-Dimethyl-1H-indol-6-yl)-{4-morpholin-4-yl-6-[2-(pyridin-3-yloxy)-ethoxy]-[1,3,5]triazin-2-yl}-amine], the IC50 in series [1] (setting [4]) worked out at 16 nM. Also, the CC50 at 24 h in series [2] (Table 2, 24 hour incubation) is above 1000 nM.

`C(=NNc1nc(OCCc2ccccn2)nc(N2CCOCC2)n1)c1c[nH]c2ccccc12` [Compound 116, N-(1H-indol-3-ylmethylene)-N′-[4-morpholin-4-yl-6-(2-pyridin-2-yl-ethoxy)-[1,3,5]triazin-2-yl]-hydrazine]: the IC50 in series [1] (setting [4]) turned out to be 35 nM. The compound also came in with a cytotoxic concentration (CC50) at 24 h in series [2] (Table 2, 24 hour incubation) above 10000 nM.

With `Cc1cccc(Nc2nc3c(N4CCOCC4)nc(OCCOc4ccccn4)nc3[nH]2)c1` [Example 63, {6-morpholin-4-yl-2-[2-(pyridin-2-yloxy)-ethoxy]-9H-purin-8-yl}-m-tolyl-amine], the IC50 in series [1] (setting [5]) was 3 nM. Also, in series [2] (Table 3, 24 hour incubation), the cytotoxic concentration (CC50) at 24 h is above 1000 nM.

Turning to `Cc1cccc(Nc2nc(N3CCOCC3)c3nc(Nc4cccc(C)c4)[nH]c3n2)c1` [Example 79, 6-morpholin-4-yl-N^2,N^8-di-m-tolyl-9H-purine-2,8-diamine], the IC50 in series [1] (setting [5]) was determined as 9 nM. This compound also had a CC50 at 24 h in series [2] (Table 3, 24 hour incubation) above 1000 nM.

With `Cc1cccc(Nc2nc(N3CCOCC3)c3nc(Nc4cccc(C)c4)n(C)c3n2)c1` [Example 116, 9-Methyl-6-morpholin-4-yl-N^2,N^8-di-m-tolyl-9H-purine-2,8-diamine], the IC50 in series [1] (setting [5]) was determined as 2 nM. The same compound had a CC50 at 24 h in series [2] (Table 3, 24 hour incubation) above 1000 nM.

`COc1ccc(N(C)c2nc(N3CCOCC3)c3nc(Nc4cccc(C)c4)[nH]c3n2)cc1` [Example 117, N^2-(4-Methoxy-phenyl)-N^2-methyl-6-morpholin-4-yl-N^8-m-tolyl-9H-purine-2,8-diamine]: the IC50 in series [1] (setting [5]) came to 12 nM. For the same compound, in series [2] (Table 3, 24 hour incubation), the CC50 at 24 h was above 1000 nM.
